Read-outs that look alike come from different tables or passages of the source.
Tests used:
TPP riboswitch RNA = experiment: Isothermal titration calorimetry (ITC) binding to TPP riboswitch RNA; conditions: for binding cooperativity with 2: ITC with and without pre-bound 2
[1] = test system: TPP riboswitch region of the screening construct; experiment: SHAPE / SHAPE-MaP fragment screening and replicate hit validation; assay type: binding; conditions: RNA pre-bound to primary fragment, fragment 1 mM, 5NIA reagent
Procedure: Fragments were obtained as a fragment screening library from Maybridge, which was a subset of their Ro3 diversity fragment library and contained 1500 compounds dissolved in DMSO at 50 mM. Most of these compounds adhere to the “rule of three” for fragment compounds; having a molecular mass <300 Da, containing ≤3 hydrogen bond donors and ≤3 hydrogen bond acceptors, and ClogP ≤3.0. All compounds used for ITC, with the exception of those listed in Example 5, were purchased from Millipore-Sigma and used without further purification. Screening experiments were carried out in 25 μL in 96-well plate format on a Tecan Freedom Evo-150 liquid handler equipped with an 8-channel air displacement pipetting arm, disposable filter tips, robotic manipulator arm, and an EchoTherm RIC20 remote controlled heating/cooling dry bath (Torrey Pines Scientific). Liquid handler programs used for screening are available upon request. […]
Once screening of test fragments is complete, statistical tests are carried out to identify differences in modification rates of a given nucleotide. […] That is, if m1 modifications of a tested nucleotide were counted among n1 reads in sample 1 and m2 modifications were counted among n2 reads in sample 2, the tested null hypothesis predicts that among all the counted modifications (m1+m2), the proportion of modifications in sample 1 will be p1=n1/(n1+n2). […]

[2] = Table 4, fragment 5 analogs, pendant groups, ITC, read-out: Kd
[3] = Table 4, fragment 5 analogs, pendant groups, ITC
[4] = Table 8, linked analogs, read-out: Kd

c1cc2[nH]cnc2cn1 [Compound 6]
Kd (TPP riboswitch RNA; Table 3, fragment 5 analogs, pyridine core modifications, ITC, read-out: Kd): 265 µM

Cc1ncc(C[n+]2csc(CCOP(=O)([O-])OP(=O)(O)O)c2C)c(N)n1 [Compound 9, thiamine pyrophosphate, reference compound]
Kd (TPP riboswitch RNA; Table 1, SHAPE-detected fragment hits, ITC, read-out: Kd): 0.028 ± 0.002 µM

Cc1cccc2nccnc12 [Compound 23]
Kd (TPP riboswitch RNA; Table 2B, fragment 2 analogs, pendant groups, ITC, read-out: Kd): 220 µM

O=C(O)c1csc2ccc(Cl)cc12 [Compound 29]
binding detected by SHAPE, second-round screen [1]: induced a very robust change in the SHAPE reactivity signal

c1cc(N2CCNCC2)ccn1 [Compound 31]
binding cooperativity with 2 (TPP riboswitch RNA): clear, but modest, binding cooperativity

Cc1cnccc1N1CCNCC1 [Compound 32]
binding cooperativity with 2 (TPP riboswitch RNA): clear, but modest, binding cooperativity

COC(=O)c1ccc(Br)nc1 [Compound S5]
Kd (TPP riboswitch RNA; [2]): 440 µM

COC(=O)c1ccc([N+](=O)[O-])nc1 [Compound S6]
Kd (TPP riboswitch RNA; [2]): 390 µM

CCOc1ccc(C(=O)OC)cn1 [Compound S7]
Kd (TPP riboswitch RNA; [2]): 1800 µM

COC(=O)c1ccc(C)nc1 [Compound S8]
Kd (TPP riboswitch RNA; [2]): 1100 µM

COC(=O)c1ccc(C(F)(F)F)nc1 [Compound S9]
Kd (TPP riboswitch RNA; [3]): no binding

COC(=O)c1ccc(Oc2ccccc2)nc1 [Compound S10]
Kd (TPP riboswitch RNA; [3]): no binding

COC(=O)c1cnc(Cl)c(Cl)c1 [Compound S11]
Kd (TPP riboswitch RNA; [2]): 820 µM

COC(=O)c1cnc(Cl)cc1Cl [Compound S12]
Kd (TPP riboswitch RNA; [2]): 93 µM | fold higher affinity for the TPP riboswitch than fragment 5 (TPP riboswitch RNA; relative to fragment 5): approximately threefold

CCOC(=O)c1ccc(Cl)nc1 [Compound S13]
Kd (TPP riboswitch RNA; [2]): 600 µM

OCc1ccc(Cl)nc1 [Compound S14]
Kd (TPP riboswitch RNA; [2]): 1300 µM

NC(=O)c1ccc(Cl)nc1 [Compound S15]
Kd (TPP riboswitch RNA; [2]): 1800 µM

NS(=O)(=O)c1ccc(Cl)nc1 [Compound S16]
Kd (TPP riboswitch RNA; [2]): 1300 µM

CCS(=O)(=O)c1ccc(Cl)nc1 [Compound S17]
Kd (TPP riboswitch RNA; [3]): no binding

CN(C)C(=O)c1ccc(Cl)nc1 [Compound S18]
Kd (TPP riboswitch RNA; [3]): no binding

O=C(CCCC(=O)Nc1ccc2nccnc2c1)NO [KW-5-1, N^1-hydroxy-N^5-(quinoxalin-6-yl)glutaramide]
Kd (TPP riboswitch RNA; [4]): 477 µM

O=C(O)CCC(=O)Nc1ccc2nccnc2c1 [KW-16-1]
Kd (TPP riboswitch RNA; [4]): 653 µM

O=C(CNc1cnccc1N1CCNCC1)Nc1ccc2nccnc2c1 [KW-29-1, 2-((4-(piperazin-1-yl)pyridin-3-yl)amino)-N-(quinoxalin-6-yl)acetamide]
Kd (TPP riboswitch RNA; [4]): 10.5 µM

O=C(CNc1ccc2nccnc2c1)NO [KW-31-1, N-hydroxy-2-(quinoxalin-6-ylamino)acetamide]
Kd (TPP riboswitch RNA; [4]): 58.1 µM

CN(C)CCN(C=O)Cc1ccc2nccnc2c1 [KW-79-1, N-(2-(dimethylamino)ethyl)-N-(quinoxalin-6-ylmethyl)formamide]
Kd (TPP riboswitch RNA; [4]): 69.1 µM

— patent US20240254107A1, “RNA-TARGETING LIGANDS, COMPOSITIONS THEREOF, AND METHODS OF MAKING AND USING THE SAME” (THE UNIVERSITY OF NORTH CAROLINA AT CHAPEL HILL, priority 2021, published 2024)
